Measured values reported in PubChem BioAssay (NCI).
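1) Cells in 96-well plates. 2) Compound, 48 h, 5 concentrations. 3) Linear interpolation between surrounding doses. 4) Unreached endpoint = highest concentration. At the TGI there is no net growth.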

Assays:
Assay in all cases: NCI tumour cell line growth inhibition, 48 h
HOP-18 NSCLC = system: HOP-18 NSCLC
DMS 273 small cell lung = system: DMS 273 small cell lung
KM20L2 colon = system: KM20L2 colon
786-0 renal = system: 786-0 renal
DMS 114 small cell lung = system: DMS 114 small cell lung
DLD-1 colon = system: DLD-1 colon
SNB-78 CNS = system: SNB-78 CNS
NCI-H522 lung = system: NCI-H522 lung
UO-31 renal = system: UO-31 renal
LXFL 529 NSCLC = system: LXFL 529 NSCLC
M19-MEL melanoma = system: M19-MEL melanoma
HCC-2998 colon = system: HCC-2998 colon
XF 498 CNS = system: XF 498 CNS

SMILES | TGI (HOP-18 NSCLC) [µM] | TGI (DMS 273 small cell lung) [µM] | TGI (KM20L2 colon) [µM] | TGI (786-0 renal) [µM] | TGI (DMS 114 small cell lung) [µM] | TGI (DLD-1 colon) [µM] | TGI (SNB-78 CNS) [µM] | TGI (NCI-H522 lung) [µM] | TGI (UO-31 renal) [µM] | TGI (LXFL 529 NSCLC) [µM] | TGI (M19-MEL melanoma) [µM] | TGI (HCC-2998 colon) [µM] | TGI (XF 498 CNS) [µM]
CC(=O)OC1CCCn2c1nc1c2C(=O)C(C)=C(N2CC2)C1=O (configuration not stated) | 1.11 | 0.552 | 1.2 | 1.65 | 2.38 | 10.9 | 2.88 | 0.636 | 5.07 | 1.66 | 1.63 | 0.722 | 0.685
CC(C)(C)OC(=O)NCCc1cccc2c1oc1c(CCC(=O)O)cccc12 | > 100 | > 100 | > 100 | > 100 | > 100 | > 100 | > 100 | > 100 | > 100 | > 100 | > 100 | > 100 | > 100
CC(=O)NC1=C(NCCN(C)C)C(=O)c2ccccc2C1=O | – | 27.6 | > 50 | > 50 | – | > 50 | > 50 | 23.8 | > 50 | > 50 | 14.3 | > 50 | 35.1
CCc1c(Cc2[nH]c(Cc3[nH]c(C=O)c(C)c3CC)c(CC)c2CC)[nH]c(C=O)c1C | > 100 | > 100 | > 100 | > 100 | > 100 | > 100 | > 100 | > 100 | > 100 | > 100 | > 100 | > 100 | > 100
CO[C@@H]1C=C[C@@]23c4cc5c(cc4C(=O)O[C@H]2CN(C)[C@H]3C1)OCO5 | > 100 | > 100 | > 100 | > 100 | > 100 | > 100 | > 100 | > 100 | > 100 | > 100 | > 100 | > 100 | > 100
CC1Oc2c(c(=O)oc3ccccc23)[C@@]1(C)CC1C[C@H](C)C(=O)O1 (some centres not stated) | – | – | – | 33.4 | – | – | – | 34.2 | 90.2 | – | – | 56.2 | –
